Measurements: patent US8933106B2, “2-(4-substituted phenylamino) polysubstituted pyridine compounds as inhibitors of non-nucleoside HIV reverse transcriptase, preparation methods and uses thereof” (Institute of Pharmacology and Toxicology Academy of …, priority 2008, dated 2015)
In brackets after ≈: the same amount, converted by molar mass.

Tests used:
Assay type in all cases: cell-based
[1] = Cytotoxicity test of the compound (MT-2 cells, XTT); details: human, 4th day
Method: Please refer to the document (Jiang, S., et al. Antimicrob. Agents Chemother. 2004, 48, 4349-4359). In a 96-pore cell culture plate, 50 μl of different concentrations of compound solutions were respectively mixed with equal-volume of PBS, and incubated at 37° C. for 30 min, and then 100 μl MT-2 (or H9) cells (1×10^5/mL, RPIM 1640 culture medium containing 10% serum) was added, and mixed homogenously, followed by incubation at 37° C. overnight. On the second day, 150 μl of the supernatant was sucked out, and equal-volume of fresh culture medium was replenished, followed by further incubation at 37° C. for 3 days. On the 4th day, 50 μl of a XTT solution (1 mg/mL) containing PMS as freshly prepared was added. After 4 h, OD at 450 nm was tested. The 50% cytotoxicity concentration (CC50) of the compound was calculated using CalcuSyn software.

[2] = Toxicity in uninfected H9 cells; details: human, uninfected H9 lymphocytes, no virus
Method: Please refer to the document (J. Med. Chem. 2004, 47, 756-760). Lymphocytes H9 were cultivated in culture medium 1640, under the conditions of 5% CO2, 37° C. The test compound was initially dissolved in DMSO, and then diluted with culture medium to conventional screening concentrations: 100, 20, 4, 0.8 μg/mL. The cultivated H9 cells were divided into two portions, one of which was infected with HIV virus (IIIB) (m.i.o. 0.1-0.01 infectious Units/cell), and used for the determination of activity. Another portion of the cells, in which no virus, but merely culture medium was added, was used for the determination of toxicity. After having been cultivated under completely the same conditions (37° C., 5% CO2) for 4 h, the two portions of cells were washed with fresh culture medium for 3 times, and then respectively added to different concentrations of test samples as formulated or to blank culture medium (the latter is positive infection control or negative drug control), while using AZT as positive drug control. […] On the 4th day, the cell membranes of the cells infected with virus were firstly removed, and the cytosol was tested by using P24 antigen ELISA assay to determine the activity of the samples, which was expressed as EC50. […] The portion of cells in which no virus was added was tested by using cytometry to determine the toxicity of the samples, which was expressed as CC50. […]

[3] = system: HIV virus (IIIB); assay: Anti-HIV activity test (H9 cell model), P24 antigen ELISA; details: for SI(CC50/EC50): H9 cells, ratio of toxicity CC50 value to activity EC50 value; for EC50: Human immunodeficiency virus 1, 96 h, H9 cells infected with HIV (IIIB), 4 days, P24 antigen
Method: Please refer to the document (J. Med. Chem. 2004, 47, 756-760). Lymphocytes H9 were cultivated in culture medium 1640, under the conditions of 5% CO2, 37° C. The test compound was initially dissolved in DMSO, and then diluted with culture medium to conventional screening concentrations: 100, 20, 4, 0.8 μg/mL. The cultivated H9 cells were divided into two portions, one of which was infected with HIV virus (IIIB) (m.i.o. 0.1-0.01 infectious Units/cell), and used for the determination of activity. Another portion of the cells, in which no virus, but merely culture medium was added, was used for the determination of toxicity. After having been cultivated under completely the same conditions (37° C., 5% CO2) for 4 h, the two portions of cells were washed with fresh culture medium for 3 times, and then respectively added to different concentrations of test samples as formulated or to blank culture medium (the latter is positive infection control or negative drug control), while using AZT as positive drug control. All of these cells were cultivated under the conditions of 5% CO2, 37° C. for 4 days. On the 4th day, the cell membranes of the cells infected with virus were firstly removed, and the cytosol was tested by using P24 antigen ELISA assay to determine the activity of the samples, which was expressed as EC50. EC50 meant an effective concentration at which 50% of virus replication was inhibited. The portion of cells in which no virus was added was tested by using cytometry to determine the toxicity of the samples, which was expressed as CC50. CC50 meant a concentration at which 50% of living cells were killed.

[4] = system: HIV-1IIIB virus strain; assay: Anti-HIV activity test (MT-2 cell model), p24 antigen ELISA; details: MT-2 cells; for EC50: Human immunodeficiency virus 1, MT2, HIV-1IIIB, 4th day, p24 antigen; for SI(CC50/EC50): ratio of toxicity CC50 value to activity EC50 value
Method: Please refer to the document (Jiang, S., et al. Antimicrob. Agents Chemother. 2004, 48, 4349-4359). In a 96-pore cell culture plate, 50 μl of different concentrations of compound solutions were respectively mixed with equal-volume of HIV-1IIIB virus strain (100 TCID50), and incubated at 37° C. for 30 min, and then 100 μl MT-2 cell (1×10^5/mL, RPIM 1640 culture medium containing 10% serum) was added, and mixed homogenously, followed by incubation at 37° C. overnight. On the second day, 150 μl of the supernatant was sucked out, and equal-volume of fresh culture medium was replenished, followed by further incubation at 37° C. for 3 days. On the 4th day, cytopathic effect (CPE) was recorded. Thereafter, 100 μl of culture supernatant was sucked out, virus particles were split using 5% Triton X-100, and p24 antigen therein was tested by using ELISA assay. Briefly, a ELISA plate was coated with HIVIG (2 μg/mL), and blocked with 1% fat-free milk, then a virus lysate was added therein, followed by incubation at 37° C. for 60 min. After fully washing the plate, anti-p24 monoclonal antibody-183-12H-5C, biotin-labeled goat antimouse antibody and […]-labeled horseradish peroxidase were added in sequence. Then, after developing with TMB, OD was tested at 450 nm. The 50% effective concentration (EC50) of the compound was calculated using CalcuSyn software.

Row | EC50 [3] | EC50 [4] | Structure (SMILES) | CC50 at 4 days [1] | CC50 at 4 days [2] | SI(CC50/EC50) [3] | SI(CC50/EC50) [4]
1 | < 0.025 µg/mL | 0.52 µg/mL (≈ 1.18 µM) | Cc1cc(Br)cc(C)c1Oc1ccc([N+](=O)[O-])c(Nc2ccc(C#N)cc2)n1 [Compound I-1, 2-(4-cyanophenylamino)-6-(2,6-dimethyl-4-bromophenoxy)-3-nitropyridine] | 32.2 µg/mL (≈ 73.4 µM) | 19.4 µg/mL (≈ 44.1 µM) | >774 | 62
2 | 0.0025 µg/mL (≈ 0.00649 µM) | 0.052 µg/mL (≈ 0.135 µM) | Cc1cc(C#N)cc(C)c1Oc1ccc([N+](=O)[O-])c(Nc2ccc(C#N)cc2)n1 [Compound I-2, 2-(4-cyanophenylamino)-6-(2,6-dimethyl-4-cyanophenoxy)-3-nitropyridine] | 19.3 µg/mL (≈ 50.1 µM) | > 25 µg/mL | >10,000 | 371
